Assays:
[1] = biological target: T1, F508delCFTR (Homo sapiens, UniProt P13569, DEL508-508); assay: Cell Surface Expression-Horse Radish Peroxidase (CSE-HRP) assay, test compound with co-corrector; type: cell-based; conditions: with 2 μM co-corrector; for Maximum % activity (with co-corrector): maximum at any tested concentration, normalized to positive control;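 for Maximum % activity (with co-corrector): percent of 2 µM positive control corrector over DMSO; co-corrector is that same compound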
T1 construct: expressed in transfected cells; host or cells: CFBE41o- human lung-derived epithelial cells (CFBE41o-F508delCFTR-HRP), doxycycline-inducible
Outline: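 Surface-expression read-out: luminol luminescence from an HRP tag in the fourth exofacial loop of F508delCFTR, in doxycycline-induced (0.5 μg/mL, 72 h) CFBE41o- cells. Compound plus 2 μM co-corrector added for 18-24 h at 33° C., 8-point 3-fold series up to 20 μM. EC50 from a sigmoidal fit with variable Hill slope, normalised to positive control, triplicate plates.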

[2] = biological target: T1, F508delCFTR; assay: Cell Surface Expression-Horse Radish Peroxidase (CSE-HRP) assay, test compound without co-corrector; type: cell-based; conditions: for Emax: maximum at any tested concentration, normalized to positive control, without co-corrector; for EC50: test compound without co-corrector;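 for Emax: percent of on-plate 2 µM positive control corrector response over DMSO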
Outline: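 Compound without co-corrector was tested at eight 3-fold concentrations, top 20 μM, for 18-24 h at 33° C on doxycycline-induced (0.5 μg/mL, 72 h) CFBE41o- F508delCFTR-HRP cells. After DPBS washes, luminol luminescence gave % activity relative to on-plate positive control minus DMSO; EC50 came from triplicate-plate sigmoidal fitting.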

T1 sequence (P13569 with tags, fused parts or gaps DEL508-508): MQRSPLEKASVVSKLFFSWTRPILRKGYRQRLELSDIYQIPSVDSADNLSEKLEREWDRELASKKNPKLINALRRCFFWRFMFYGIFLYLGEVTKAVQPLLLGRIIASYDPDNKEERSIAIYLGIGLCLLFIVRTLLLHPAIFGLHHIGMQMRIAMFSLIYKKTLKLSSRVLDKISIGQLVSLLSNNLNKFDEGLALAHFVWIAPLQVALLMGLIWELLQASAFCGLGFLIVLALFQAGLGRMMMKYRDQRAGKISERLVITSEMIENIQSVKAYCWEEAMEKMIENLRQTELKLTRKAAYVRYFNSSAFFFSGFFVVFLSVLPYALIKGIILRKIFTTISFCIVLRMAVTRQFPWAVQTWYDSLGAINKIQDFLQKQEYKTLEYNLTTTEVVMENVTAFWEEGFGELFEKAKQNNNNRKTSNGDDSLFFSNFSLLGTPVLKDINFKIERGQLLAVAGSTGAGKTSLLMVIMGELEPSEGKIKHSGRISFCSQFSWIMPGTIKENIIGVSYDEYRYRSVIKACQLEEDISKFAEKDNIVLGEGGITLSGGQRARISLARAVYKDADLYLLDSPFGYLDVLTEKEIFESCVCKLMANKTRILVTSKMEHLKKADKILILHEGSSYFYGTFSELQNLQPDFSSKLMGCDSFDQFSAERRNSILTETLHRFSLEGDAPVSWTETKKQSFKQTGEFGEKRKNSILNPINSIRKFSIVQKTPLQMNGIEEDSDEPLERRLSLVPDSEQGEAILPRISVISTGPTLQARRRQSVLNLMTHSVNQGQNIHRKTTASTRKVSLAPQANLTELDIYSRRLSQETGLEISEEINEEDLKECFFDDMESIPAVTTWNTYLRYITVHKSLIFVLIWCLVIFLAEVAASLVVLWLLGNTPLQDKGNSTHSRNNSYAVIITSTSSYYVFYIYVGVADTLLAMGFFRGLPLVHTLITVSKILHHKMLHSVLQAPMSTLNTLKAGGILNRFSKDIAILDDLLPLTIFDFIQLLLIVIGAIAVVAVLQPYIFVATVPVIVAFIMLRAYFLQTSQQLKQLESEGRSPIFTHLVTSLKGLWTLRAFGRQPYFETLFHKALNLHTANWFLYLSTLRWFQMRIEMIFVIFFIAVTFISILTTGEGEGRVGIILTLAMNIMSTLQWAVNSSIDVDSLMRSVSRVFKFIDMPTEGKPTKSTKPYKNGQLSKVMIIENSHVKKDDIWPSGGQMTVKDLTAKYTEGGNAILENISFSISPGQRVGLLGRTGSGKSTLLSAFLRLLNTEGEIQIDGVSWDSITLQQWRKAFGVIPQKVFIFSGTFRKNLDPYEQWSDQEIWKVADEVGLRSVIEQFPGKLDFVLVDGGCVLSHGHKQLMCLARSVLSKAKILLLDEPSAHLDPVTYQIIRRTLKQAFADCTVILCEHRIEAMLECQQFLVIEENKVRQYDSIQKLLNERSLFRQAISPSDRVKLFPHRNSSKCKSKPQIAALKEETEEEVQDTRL

SMILES	Maximum % activity (with co-corrector) [1]	EC50 [1] [µM]	Emax [2] [%]	EC50 [2] [µM]
COc1ccc(C2CCC2)c2c1[C@H](C(=O)NS(=O)(=O)c1cccc3ncn(C)c13)CC2 [Example I-126, (1R)-4-cyclobutyl-7-methoxy-N-(1-methyl-1H-benzimidazole-7-sulfonyl)-2,3-dihydro-1H-indene-1-carboxamide]	+++ (≥350)	< 3	≥ 150	< 3
COc1ccc(C2CCC2)c2c1[C@H](C(=O)NS(=O)(=O)c1cccc3c1CCCN3)CC2 [Example I-129, (1R)-4-cyclobutyl-7-methoxy-N-(1,2,3,4-tetrahydroquinoline-5-sulfonyl)-2,3-dihydro-1H-indene-1-carboxamide]	+++ (≥350)	< 3	≥ 150	< 3
COc1ccc(C2CCC2)c2c1C(C(=O)NS(=O)(=O)c1cccn3nccc13)CC2 (stereo not shown) [Example I-135, 4-cyclobutyl-7-methoxy-N-(pyrazolo[1,5-a]pyridine-4-sulfonyl)-2,3-dihydro-1H-indene-1-carboxamide]	+++ (≥350)	< 3	≥ 150	3 to 10
COc1ccc(C2CCC2)c2c1C(C(=O)NS(=O)(=O)c1cccn3nccc13)C2 (stereo not shown) [Example I-136, 2-cyclobutyl-5-methoxy-N-(pyrazolo[1,5-a]pyridine-4-sulfonyl)bicyclo[4.2.0]octa-1,3,5-triene-7-carboxamide]	+++ (≥350)	< 3	≥ 150	< 3
COCc1ccc(OC)c2c1CCC2C(=O)NS(=O)(=O)c1cccc2ccccc12 (stereo not shown) [Example I-139, 7-methoxy-4-(methoxymethyl)-N-(naphthalene-1-sulfonyl)-2,3-dihydro-1H-indene-1-carboxamide]	+++ (≥350)	< 3	≥ 150	3 to 10
COc1ccc(CC(C)C)c2c1C(C(=O)NS(=O)(=O)c1cccc3ncccc13)CC2 (stereo not shown) [Example I-140, 7-methoxy-4-(2-methylpropyl)-N-(quinoline-5-sulfonyl)-2,3-dihydro-1H-indene-1-carboxamide]	+++ (≥350)	< 3	≥ 150	< 3
COc1ccc(C2CCC2)c2c1[C@H](C(=O)NS(=O)(=O)c1cccc3cnn(C)c13)C2 [Example I-144, (7R)-2-cyclobutyl-5-methoxy-N-(1-methyl-1H-indazole-7-sulfonyl)bicyclo[4.2.0]octa-1,3,5-triene-7-carboxamide]	+++ (≥350)	< 3	≥ 150	< 3
COc1cccc2c1C(C(=O)NS(=O)(=O)c1cccc3ccccc13)CC2(C)C (stereo not shown) [Example I-149, 7-methoxy-3,3-dimethyl-N-(naphthalene-1-sulfonyl)-2,3-dihydro-1H-indene-1-carboxamide]	+++ (≥350)	< 3	≥ 150	< 3
COc1cccc2c1[C@@H](C(=O)NS(=O)(=O)c1cccc3ncccc13)CC2(C)C [Example I-153, (1S)-7-methoxy-3,3-dimethyl-N-(quinoline-5-sulfonyl)-2,3-dihydro-1H-indene-1-carboxamide]	+++ (≥350)	< 3	≥ 150	3 to 10
Cc1ccccc1S(=O)(=O)NC(=O)C1CCc2c(Cl)cccc21 (stereo not shown) [Example II-3, 4-chloro-N-(2-methylbenzene-1-sulfonyl)-2,3-dihydro-1H-indene-1-carboxamide]	+++ (≥350)	3 to 10	50 to 150	3 to 10
Cc1ccccc1S(=O)(=O)NC(=O)C1CCc2c(-c3ccccc3)cccc21 (stereo not shown) [Example II-36, N-(2-methylbenzene-1-sulfonyl)-4-phenyl-2,3-dihydro-1H-indene-1-carboxamide]	+++ (≥350)	3 to 10	50 to 150	3 to 10
O=C(NS(=O)(=O)c1cccc2ccccc12)C1(CN2CCCC2)CCc2c(Cl)cccc21 (stereo not shown) [Example II-47, 4-chloro-N-(naphthalene-1-sulfonyl)-1-[(pyrrolidin-1-yl)methyl]-2,3-dihydro-1H-indene-1-carboxamide]	++ (≥150 and <350)	3 to 10	< 50	3 to 10
CCC1(C(=O)NS(=O)(=O)N2CCCc3ccccc32)CCc2c(Cl)cccc21 (stereo not shown) [Example II-80, 4-chloro-N-(3,4-dihydroquinoline-1(2H)-sulfonyl)-1-ethyl-2,3-dihydro-1H-indene-1-carboxamide]	+ (<150)	≥ 10	< 50	≥ 10
O=C(NS(=O)(=O)c1cccc2ccccc12)C1(CO)CCc2c(Cl)cccc21 (stereo not shown) [Example II-81, 4-chloro-1-(hydroxymethyl)-N-(naphthalene-1-sulfonyl)-2,3-dihydro-1H-indene-1-carboxamide]	+++ (≥350)	< 3	50 to 150	3 to 10

The next lines start with the values.

Maximum % activity (with co-corrector) [1]	EC50 [1] [µM]	Emax [2] [%]	EC50 [2] [µM]	SMILES
+++ (≥350)	3 to 10	50 to 150	3 to 10	COc1ccc(C(C)(C)O)c2c1C(C(=O)NS(=O)(=O)c1cccc3ccccc13)CC2 (stereo not shown) [Example I-125, 4-(2-hydroxypropan-2-yl)-7-methoxy-N-(naphthalene-1-sulfonyl)-2,3-dihydro-1H-indene-1-carboxamide]
+++ (≥350)	< 3	≥ 150	3 to 10	COc1ccc(C2CCC2)c2c1[C@@H](C(=O)NS(=O)(=O)c1cccc3nc(C)ccc13)CC2 [Example I-127, (1S)-4-cyclobutyl-7-methoxy-N-(2-methylquinoline-5-sulfonyl)-2,3-dihydro-1H-indene-1-carboxamide]
+++ (≥350)	< 3	≥ 150	3 to 10	COc1ccc(C2CCC2)c2c1[C@H](C(=O)NS(=O)(=O)c1cccc3nc(C)ccc13)CC2 [Example I-128, (1R)-4-cyclobutyl-7-methoxy-N-(2-methylquinoline-5-sulfonyl)-2,3-dihydro-1H-indene-1-carboxamide]
+++ (≥350)	< 3	≥ 150	< 3	COc1ccc(C2CCC2)c2c1C(C(=O)NS(=O)(=O)c1cccc3cnn(C)c13)C2 (stereo not shown) [Example I-132, 2-cyclobutyl-5-methoxy-N-(1-methyl-1H-indazole-7-sulfonyl)bicyclo[4.2.0]octa-1,3,5-triene-7-carboxamide]
+++ (≥350)	< 3	≥ 150	< 3	COc1ccc(C2CCC2)c2c1C(C(=O)NS(=O)(=O)c1cccc3ncn(C)c13)CC2 (stereo not shown) [Example I-133, 4-cyclobutyl-7-methoxy-N-(1-methyl-1H-benzimidazole-7-sulfonyl)-2,3-dihydro-1H-indene-1-carboxamide]
+++ (≥350)	< 3	≥ 150	3 to 10	COc1ccc(C2CCCO2)c2c1C(C(=O)NS(=O)(=O)c1cccc3ccccc13)CC2 (stereo not shown) [Example I-138, 7-methoxy-N-(naphthalene-1-sulfonyl)-4-(oxolan-2-yl)-2,3-dihydro-1H-indene-1-carboxamide]
+++ (≥350)	< 3	≥ 150	< 3	COc1ccc(C2CCC2)c2c1[C@H](C(=O)NS(=O)(=O)c1cccc3c1CCCN3)C2 [Example I-146, (7R)-2-cyclobutyl-5-methoxy-N-(1,2,3,4-tetrahydroquinoline-5-sulfonyl)bicyclo[4.2.0]octa-1,3,5-triene-7-carboxamide]
+++ (≥350)	< 3	≥ 150	3 to 10	COc1ccc(C2CCC2)c2c1[C@H](C(=O)NS(=O)(=O)c1cccn3nccc13)CC2 [Example I-151, (1R)-4-cyclobutyl-7-methoxy-N-(pyrazolo[1,5-a]pyridine-4-sulfonyl)-2,3-dihydro-1H-indene-1-carboxamide]
+++ (≥350)	< 3	≥ 150	3 to 10	COc1cccc2c1C(C(=O)NS(=O)(=O)c1cccc3ncccc13)CC2(C)C (stereo not shown) [Example I-152, 7-methoxy-3,3-dimethyl-N-(quinoline-5-sulfonyl)-2,3-dihydro-1H-indene-1-carboxamide]
+++ (≥350)	< 3	≥ 150	3 to 10	COc1cccc2c1[C@H](C(=O)NS(=O)(=O)c1cccc3ncccc13)CC2(C)C [Example I-154, (1R)-7-methoxy-3,3-dimethyl-N-(quinoline-5-sulfonyl)-2,3-dihydro-1H-indene-1-carboxamide]
+++ (≥350)	< 3	≥ 150	3 to 10	COc1ccc(C2CCC2)c2c1[C@H](C(=O)NS(=O)(=O)c1cccc3ncc(C)n13)C2 [Example I-155, (7R)-2-cyclobutyl-5-methoxy-N-(3-methylimidazo[1,2-a]pyridine-5-sulfonyl)bicyclo[4.2.0]octa-1,3,5-triene-7-carboxamide]

Source: patent publication US20180244611A1, “Modulators of the Cystic Fibrosis Transmembrane Conductance Regulator Protein and Methods of Use” (AbbVie S.à.r.l., priority 2017, published 2018)
